In the NIST ThermoML archive (doi:10.1016/j.fluid.2016.02.031):
Numbers after ± are expanded uncertainties.

Experiment: refractive index (Na D-line) (dimensionless); xn = mol fraction of the nth substance listed
Settings: 100 kPa, Liquid, Standard Abbe refractometry

## OCCCO [propan-1,3-diol] + CCC(C)=O
288.15 K, x1 = 0.1052
  refractive index: 1.38816 ± 0.00035
288.15 K, x1 = 0.2004
  refractive index: 1.39411 ± 0.00035
288.15 K, x1 = 0.3002
  refractive index: 1.40019 ± 0.00035
288.15 K, x1 = 0.4003
  refractive index: 1.40646 ± 0.00035
288.15 K, x1 = 0.4999
  refractive index: 1.41261 ± 0.00035
288.15 K, x1 = 0.5992
  refractive index: 1.41868 ± 0.00035
288.15 K, x1 = 0.6992
  refractive index: 1.42474 ± 0.00035
288.15 K, x1 = 0.7989
  refractive index: 1.43046 ± 0.00035
288.15 K, x1 = 0.8998
  refractive index: 1.43588 ± 0.00035
288.15 K, x1 = 1
  refractive index: 1.44073 ± 0.00035
293.15 K, x1 = 0.1052
  refractive index: 1.3857 ± 0.00035
293.15 K, x1 = 0.2004
  refractive index: 1.39177 ± 0.00035
293.15 K, x1 = 0.3002
  refractive index: 1.39791 ± 0.00035
293.15 K, x1 = 0.4003
  refractive index: 1.4043 ± 0.00035
293.15 K, x1 = 0.4999
  refractive index: 1.41059 ± 0.00035
293.15 K, x1 = 0.5992
  refractive index: 1.4168 ± 0.00035
293.15 K, x1 = 0.6992
  refractive index: 1.42295 ± 0.00035
293.15 K, x1 = 0.7989
  refractive index: 1.42881 ± 0.00035
293.15 K, x1 = 0.8998
  refractive index: 1.43434 ± 0.00035
293.15 K, x1 = 1
  refractive index: 1.43932 ± 0.00035
298.15 K, x1 = 0.1052
  refractive index: 1.38318 ± 0.00035
298.15 K, x1 = 0.2004
  refractive index: 1.38937 ± 0.00035
298.15 K, x1 = 0.3002
  refractive index: 1.39561 ± 0.00035
298.15 K, x1 = 0.4003
  refractive index: 1.40216 ± 0.00035
298.15 K, x1 = 0.4999
  refractive index: 1.40857 ± 0.00035
298.15 K, x1 = 0.5992
  refractive index: 1.4149 ± 0.00035
298.15 K, x1 = 0.6992
  refractive index: 1.42116 ± 0.00035
298.15 K, x1 = 0.7989
  refractive index: 1.42712 ± 0.00035
298.15 K, x1 = 0.8998
  refractive index: 1.43277 ± 0.00035
298.15 K, x1 = 1
  refractive index: 1.43792 ± 0.00035
303.15 K, x1 = 0.1052
  refractive index: 1.38072 ± 0.00035
303.15 K, x1 = 0.2004
  refractive index: 1.38701 ± 0.00035
303.15 K, x1 = 0.3002
  refractive index: 1.39336 ± 0.00035
303.15 K, x1 = 0.4003
  refractive index: 1.40002 ± 0.00035
303.15 K, x1 = 0.4999
  refractive index: 1.40654 ± 0.00035
303.15 K, x1 = 0.5992
  refractive index: 1.41298 ± 0.00035
303.15 K, x1 = 0.6992
  refractive index: 1.41936 ± 0.00035
303.15 K, x1 = 0.7989
  refractive index: 1.42544 ± 0.00035
303.15 K, x1 = 0.8998
  refractive index: 1.43123 ± 0.00035
303.15 K, x1 = 1
  refractive index: 1.43654 ± 0.00035
308.15 K, x1 = 0.1052
  refractive index: 1.3783 ± 0.00035
308.15 K, x1 = 0.2004
  refractive index: 1.38469 ± 0.00035
308.15 K, x1 = 0.3002
  refractive index: 1.39119 ± 0.00035
308.15 K, x1 = 0.4003
  refractive index: 1.39791 ± 0.00035
308.15 K, x1 = 0.4999
  refractive index: 1.40452 ± 0.00035
308.15 K, x1 = 0.5992
  refractive index: 1.41104 ± 0.00035
308.15 K, x1 = 0.6992
  refractive index: 1.41754 ± 0.00035
308.15 K, x1 = 0.7989
  refractive index: 1.42374 ± 0.00035
308.15 K, x1 = 0.8998
  refractive index: 1.42967 ± 0.00035
308.15 K, x1 = 1
  refractive index: 1.43513 ± 0.00035
313.15 K, x1 = 0.1052
  refractive index: 1.37575 ± 0.00035
313.15 K, x1 = 0.2004
  refractive index: 1.38226 ± 0.00035
313.15 K, x1 = 0.3002
  refractive index: 1.38891 ± 0.00035
313.15 K, x1 = 0.4003
  refractive index: 1.39575 ± 0.00035
313.15 K, x1 = 0.4999
  refractive index: 1.40246 ± 0.00035
313.15 K, x1 = 0.5992
  refractive index: 1.4091 ± 0.00035
313.15 K, x1 = 0.6992
  refractive index: 1.41566 ± 0.00035
313.15 K, x1 = 0.7989
  refractive index: 1.42201 ± 0.00035
313.15 K, x1 = 0.8998
  refractive index: 1.42812 ± 0.00035
313.15 K, x1 = 1
  refractive index: 1.43375 ± 0.00035
318.15 K, x1 = 0.1052
  refractive index: 1.37324 ± 0.00035
318.15 K, x1 = 0.2004
  refractive index: 1.37988 ± 0.00035
318.15 K, x1 = 0.3002
  refractive index: 1.38656 ± 0.00035
318.15 K, x1 = 0.4003
  refractive index: 1.39357 ± 0.00035
318.15 K, x1 = 0.4999
  refractive index: 1.40036 ± 0.00035
318.15 K, x1 = 0.5992
  refractive index: 1.40712 ± 0.00035
318.15 K, x1 = 0.6992
  refractive index: 1.41382 ± 0.00035
318.15 K, x1 = 0.7989
  refractive index: 1.4203 ± 0.00035
318.15 K, x1 = 0.8998
  refractive index: 1.42654 ± 0.00035
318.15 K, x1 = 1
  refractive index: 1.43232 ± 0.00035
323.15 K, x1 = 0.1052
  refractive index: 1.3706 ± 0.00035
323.15 K, x1 = 0.2004
  refractive index: 1.37728 ± 0.00035
323.15 K, x1 = 0.3002
  refractive index: 1.38422 ± 0.00035
323.15 K, x1 = 0.4003
  refractive index: 1.39132 ± 0.00035
323.15 K, x1 = 0.4999
  refractive index: 1.39822 ± 0.00035
323.15 K, x1 = 0.5992
  refractive index: 1.40508 ± 0.00035
323.15 K, x1 = 0.6992
  refractive index: 1.41196 ± 0.00035
323.15 K, x1 = 0.7989
  refractive index: 1.41857 ± 0.00035
323.15 K, x1 = 0.8998
  refractive index: 1.42496 ± 0.00035
323.15 K, x1 = 1
  refractive index: 1.43087 ± 0.00035
328.15 K, x1 = 0.1052
  refractive index: 1.36798 ± 0.00035
328.15 K, x1 = 0.2004
  refractive index: 1.37479 ± 0.00035
328.15 K, x1 = 0.3002
  refractive index: 1.38186 ± 0.00035
328.15 K, x1 = 0.4003
  refractive index: 1.38903 ± 0.00035
328.15 K, x1 = 0.4999
  refractive index: 1.39608 ± 0.00035
328.15 K, x1 = 0.5992
  refractive index: 1.40306 ± 0.00035
328.15 K, x1 = 0.6992
  refractive index: 1.41006 ± 0.00035
328.15 K, x1 = 0.7989
  refractive index: 1.4168 ± 0.00035
328.15 K, x1 = 0.8998
  refractive index: 1.42335 ± 0.00035
328.15 K, x1 = 1
  refractive index: 1.42945 ± 0.00035
333.15 K, x1 = 0.1052
  refractive index: 1.36512 ± 0.00035
333.15 K, x1 = 0.2004
  refractive index: 1.37205 ± 0.00035
333.15 K, x1 = 0.3002
  refractive index: 1.3793 ± 0.00035
333.15 K, x1 = 0.4003
  refractive index: 1.38657 ± 0.00035
333.15 K, x1 = 0.4999
  refractive index: 1.3938 ± 0.00035
333.15 K, x1 = 0.5992
  refractive index: 1.40096 ± 0.00035
333.15 K, x1 = 0.6992
  refractive index: 1.4081 ± 0.00035
333.15 K, x1 = 0.7989
  refractive index: 1.41497 ± 0.00035
333.15 K, x1 = 0.8998
  refractive index: 1.42166 ± 0.00035
333.15 K, x1 = 1
  refractive index: 1.42803 ± 0.00035
